Measurements: US20230069963A1, “PYRAZOLO[1,5-A]PYRIMIDINE MACROCYCLIC COMPOUND” (priority 2018, published 2023)

Legend:
[1] = from CN(CCNC(=O)COc1ccc(F)cc1C(=O)O)c1cc(Cl)nc2cc([C@@H]3CCCCN3)nn12; amide bond; HATU; DMF; 10.0 mM; 25.0 °C; 15.0 h
D486N mutant strain = conditions: D486N mutant vs wild strain; cited from earlier work

Structure (SMILES)	ring closure, yield of all isomers [1]	reduction of activity against the D486N mutant strain compared to the activity against the wild strain (D486N mutant strain)
CN1CCNC(=O)COc2ccc(F)cc2C(=O)N2CCCC[C@H]2c2cc3nc(Cl)cc1n3n2	64.8%	–
Cc1cn2nc([C@@H]3CCCCN3C(=O)c3cc(Cl)ccc3NS(C)(=O)=O)cc2nc1N1CC[C@H](N)C1 [GS-5806]	–	approximately 1000 times
